Test system: CNV lesions
Assay: CNV animal model of AMD, murine vs humanized mAbs (Example 17)
Type: in vivo, mice
Details: for Percent inhibition of lesion size: 14 days post laser
Experimental: The humanized antibody variants and the murine antibody were compared for their ability to inhibit neo-vascularization in the CNV animal model of AMD as shown in FIG. 13. […] Mice were sacrificed 14 days post laser surgery. Control mice were treated with aqueous buffer (PBS) or an isotype-matched non-specific antibody. Three of the humanized variants inhibited angiogenesis essentially equivalently to the murine antibody as assessed by measurement of CNV area. CNV lesion volumes are represented as means±SEM.
For the induction of CNV, mice were anesthetized with a mixture of ketamine (14 mg/kg) and xylazine (30 mg/kg) in sterile saline administered intraperitoneally at a dose of 5 μL per 20 g of body weight. Their pupils were then dilated with one drop each of ophthalmic tropicamide (0.5%) and phenylephrine (2.5%). An argon green ophthalmic laser (Oculight GL 532 nm, Iridex Corporation, Mountain View, Calif.) coupled to a slit lamp set to deliver a 100 msec pulse at 150 mW with a 50 μm spot size will then be used to rupture Bruch's membrane in three quadrants of the right eye located approximately 50 μm from the optic disc at relative 9, 12 and 3 o'clock positions. The left eye served as uninjured control in all cases.
The morphometric and volumetric CNV lesions were measured as follows. Two weeks after laser induction of CNV, the animals were euthanized by overdose of ketamine-xylazine mixture, then undergo whole body perfusion via cardiac puncture with 6 ml 4% paraformaldehyde in PBS, pH 7.5, (fixative) as previously described (Sengupta et al., 2003). The eyes will then be enucleated, punctured with a 27 g needle 1 mm posterior to the limbus, and immersed in fixative for 1 hr at room temperature, then washed 2× by immersion in PBS for 30 min. The eyes will then be dissected to isolate the posterior segment consisting of the retinal pigment epithelium, the choriocapillaris and the sclera. This tissue was then permeabilized and reacted with rhodamine-conjugated R. communis agglutinin I (Vector Laboratories, Burlingame, Calif.) to detect the CNV lesion as previously described (Sengupta et al., 2003; Sengupta et al., 2005). […]
Captured digital images were evaluated morphometrically using ImageJ software (Research Services Branch, National Institutes of Health, Bethesda, Md.). Images were split into separate RGB channels for analysis of the red and green channels as follows: 1) a calibration for the specific objective and microscope was applied to set the pixel-to-length ratio; 2) a threshold was applied using the Otsu algorithm; 3) images will be made binary; 4) a region-of-interest (ROI) was outlined to include the entire lesion area; 5) a particle analysis was performed to quantify the pixel area above the threshold level within the ROI. […]

[1] = 0.5 ug intravitreal, Day 0 and Day 6

Molecule | inhibition of neovascularization (CNV area/volume), qualitative [1] | Percent inhibition of lesion size [1] | inhibition compared to non-specific antibody control (p<0.05)
LT1009: humanized anti-S1P IgG1/kappa mAb with Cys to Ala in HCDR2, light chain with 5 backmutations; SEQ ID NO: 31/32 | markedly suppressed neovascularization | ~99% | significant inhibition
LT1002: murine anti-S1P monoclonal antibody, IgG1 kappa, from hybridoma clone 306D326.26 (antibody, listed as Mus sp., V domains shown) VH: QAHLQQSDAELVKPGASVKISCKVSGFIFIDHTIHWMKQRPEQGLEWIGCISPRHDITKYNEMFRGKATLTADKSSTTAYIQVNSLTFEDSAVYFCARGGFYGSTIWFDFWGQGTTLTVS VL: ETTVTQSPASLSMAIGEKVTIRCITTTDIDDDMNWFQQKPGEPPNLLISEGNILRPGVPSRFSSSGYGTDFLFTIENMLSEDVADYYCLQSDNLPFTFGSGTKLEIK | – | approximately 80% | –

Reference: US8026342B2, “Compositions and methods for binding sphingosine-1-phosphate” (Lpath, Inc., priority 2006, dated 2011)
